Source: patent US11667606B2, “Thyromimetics” (Autobahn Therapeutics, Inc., priority 2019, dated 2023)

How the values were obtained:
TRα = target: T1, TRα (Homo sapiens, UniProt P10827); assay: Thyroid-hormone reporter-gene assay, TRα (Gal4 DBD hybrid, luciferase, HEK293); type: cell-based; conditions: reporter cells derived from HEK293, 24 hr incubation, luciferase readout
T1 construct: expressed in transfected cells; host or cells: HEK293
T1 sequence (P10827 128-410 isoform P10827-2 limits assumed): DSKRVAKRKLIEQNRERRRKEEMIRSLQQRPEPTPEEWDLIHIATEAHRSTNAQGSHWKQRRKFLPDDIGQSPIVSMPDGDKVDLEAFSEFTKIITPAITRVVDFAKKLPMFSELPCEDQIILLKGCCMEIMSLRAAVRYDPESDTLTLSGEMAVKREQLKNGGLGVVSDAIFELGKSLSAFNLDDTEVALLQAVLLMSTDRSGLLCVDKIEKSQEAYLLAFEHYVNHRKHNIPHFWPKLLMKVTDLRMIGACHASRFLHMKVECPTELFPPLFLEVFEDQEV
Procedure: (§1) Compounds were tested for thyroid-hormone receptor activity using TR reporter-gene assays. Reporter cells used in the assays express a TR-receptor hybrid (either TRα or TRβ) in which the native N-terminal DNA binding domain (DBD) has been replaced with that of the yeast Gal4 DBD. The reporter gene, firefly luciferase, is functionally linked to the Gal4 upstream activation sequence (UAS). Both cell lines were derived from human embryonic kidney (HEK293).
(§2) A suspension of reporter cells was prepared in cell recovery medium containing 10% charcoal-stripped FBS, and dispensed into assay plates. The plates were pre-incubated for 6 hours in a cell culture incubator (37° C./5% CO2/85% humidity).
(§3) These intermediate stocks were subsequently diluted directly into compound screening medium containing 10% charcoal-stripped FBS to generate “2×-concentration” treatment media (containing 0.2, 0.4 or 0.8% DMSO).
(§4) At the end of the pre-incubation period, culture media were discarded from the assay plates, and all wells received 100 μl of compound screening medium. 100 μl of each of the previously prepared “2×-concentration” treatment media were dispensed into duplicate assay wells, thereby achieving the desired final treatment concentrations. The final concentration of DMSO in all assay wells was 0.1, 0.2 or 0.4%. Assay plates were incubated for 24 hr in a cell culture incubator (37° C./5% CO2/85% humidity).
(§5) At the 24 h assay endpoint, treatment media were discarded and […] of luciferase detection reagent was added. Relative luminometer units (RLUs) were quantified from each assay well.

TRβ = target: T2, TRβ (Homo sapiens, UniProt P10828); assay: Thyroid-hormone reporter-gene assay, TRβ (Gal4 DBD hybrid, luciferase, HEK293); type: cell-based; conditions: for EC50: reporter cells derived from HEK293, 24 hr incubation, luciferase readout; for T3-SI, selectivity index (SI) calculated as EC50 (TRα)/EC50 (TRβ): TRβ over TRα selectivity from reporter-gene EC50 values
T2 construct: expressed in transfected cells; host or cells: HEK293
T2 sequence (P10828 217-461 limits assumed): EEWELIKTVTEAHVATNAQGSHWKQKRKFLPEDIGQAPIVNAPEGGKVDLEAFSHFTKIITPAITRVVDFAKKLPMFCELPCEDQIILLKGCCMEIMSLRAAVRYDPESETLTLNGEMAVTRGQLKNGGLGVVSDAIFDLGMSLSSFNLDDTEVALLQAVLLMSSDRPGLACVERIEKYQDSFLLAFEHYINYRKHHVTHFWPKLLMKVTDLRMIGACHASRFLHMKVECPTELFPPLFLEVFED
Procedure: as §1, §2, §3, §4, §5

| Compound | EC50 (TRα) | EC50 (TRβ) | T3-SI, selectivity index (SI) calculated as EC50 (TRα)/EC50 (TRβ) (TRβ) |
| --- | --- | --- | --- |
| O=C(O)COc1cc(Cl)c(Cc2ccc(O)c(-c3ccoc3)c2)c(Cl)c1 [Compound 40, 2-(3,5-dichloro-4-(3-(furan-3-yl)-4-hydroxybenzyl)phenoxy)acetic acid] | > 1000 nM | > 1000 nM | ++ (3X < T3-SI ≤ 30X) |
| O=C(O)COc1cc(Cl)c(Cc2ccc(O)c(-c3ccsc3)c2)c(Cl)c1 [Compound 42, 2-(3,5-dichloro-4-(4-hydroxy-3-(thiophen-3-yl)benzyl)phenoxy)acetic acid] | > 1000 nM | 100 to 1000 nM | ++ (3X < T3-SI ≤ 30X) |
| O=C(O)COc1cc(Cl)c(Cc2ccc(O)c(-c3csc(Cl)c3)c2)c(Cl)c1 [Compound 43, 2-(3,5-dichloro-4-(3-(5-chlorothiophen-3-yl)-4-hydroxybenzyl)phenoxy) acetic Acid] | > 1000 nM | 100 to 1000 nM | ++ (3X < T3-SI ≤ 30X) |
| O=C(O)COc1cc(Cl)c(Cc2ccc(O)c(-c3cccc(C(F)(F)F)c3F)c2)c(Cl)c1 [Compound 49, 2-(3,5-dichloro-4-((2′-fluoro-6-hydroxy-3′-(trifluoromethyl)-[1,1′-biphenyl]-3-yl)methyl)phenoxy)acetic Acid] | > 1000 nM | 100 to 1000 nM | ++ (3X < T3-SI ≤ 30X) |
| CCc1ccc(F)c(-c2cc(Cc3c(Cl)cc(OCC(=O)O)cc3Cl)ccc2O)c1 [Compound 51, 2-(3,5-dichloro-4-((5′-ethyl-2′-fluoro-6-hydroxy-[1,1′-biphenyl]-3-yl)methyl)phenoxy)acetic Acid] | > 1000 nM | > 1000 nM | ++ (3X < T3-SI ≤ 30X) |
| O=C(O)COc1cc(Cl)c(Cc2ccc(O)c(-c3cc(F)cc(OC(F)F)c3)c2)c(Cl)c1 [Compound 54, 2-(3,5-dichloro-4-((3′-(difluoromethoxy)-5′-fluoro-6-hydroxy-[1,1′-biphenyl]-3-yl)methyl)phenoxy)acetic Acid] | > 1000 nM | 100 to 1000 nM | ++ (3X < T3-SI ≤ 30X) |
| O=C(O)COc1cc(Cl)c(Cc2ccc(O)c(-c3cccc(OC(F)F)c3F)c2)c(Cl)c1 [Compound 56, 2-(3,5-dichloro-4-((3′-(difluoromethoxy)-2′-fluoro-6-hydroxy-[1,1′-biphenyl]-3-yl)methyl)phenoxy)acetic Acid] | > 1000 nM | 100 to 1000 nM | ++ (3X < T3-SI ≤ 30X) |
| CCc1cccc(-c2cc(Cc3c(C)cc(OCC(=O)O)cc3Cl)ccc2O)c1 [Compound 60, 2-(3-chloro-4-((3′-ethyl-6-hydroxy-[1,1′-biphenyl]-3-yl)methyl)-5-methylphenoxy)acetic Acid] | > 1000 nM | 100 to 1000 nM | +++ (T3-SI > 30X) |
| Cc1cc(OCC(=O)O)cc(Cl)c1Cc1ccc(O)c(-c2cccc(OC(F)F)c2)c1 [Compound 62, 2-(3-chloro-4-((3′-(difluoromethoxy)-6-hydroxy-[1,1′-biphenyl]-3-yl)methyl)-5-methylphenoxy)acetic Acid] | > 1000 nM | 100 to 1000 nM | ++ (3X < T3-SI ≤ 30X) |
| O=C(O)COc1cc(Cl)c(Cc2ccc(O)c(Cc3ccc(F)cc3)c2)c(Cl)c1 [Compound 70, 2-(3,5-dichloro-4-(3-(4-fluorobenzyl)-4-hydroxybenzyl)phenoxy)acetic Acid] | > 1000 nM | 100 to 1000 nM | +++ (T3-SI > 30X) |
| O=C(O)COc1cc(Cl)c(Cc2ccc(O)c(Cc3ccncc3)c2)c(Cl)c1 [Compound 82, 2-(3,5-dichloro-4-(4-hydroxy-3-(pyridin-4-ylmethyl)benzyl)phenoxy) acetic Acid] | > 1000 nM | > 1000 nM | ++ (3X < T3-SI ≤ 30X) |
| O=C(O)COc1cc(Cl)c(Cc2ccc(O)c(Cc3ccccc3F)c2)c(Cl)c1 [Compound 84, 2-(3,5-dichloro-4-(3-(2-fluorobenzyl)-4-hydroxybenzyl)phenoxy)acetic Acid] | > 1000 nM | > 1000 nM | ++ (3X < T3-SI ≤ 30X) |

Now from value to compound:

| EC50 (TRα) | EC50 (TRβ) | T3-SI, selectivity index (SI) calculated as EC50 (TRα)/EC50 (TRβ) (TRβ) | Compound |
| --- | --- | --- | --- |
| > 1000 nM | > 1000 nM | – | C=C(C)c1cccc(-c2cc(Cc3c(Cl)cc(OCC(=O)O)cc3Cl)ccc2O)c1 [Compound 22, 2-(3,5-dichloro-4-((6-hydroxy-3′-(prop-1-en-2-yl)-[1,1′-biphenyl]-3-yl)methyl)phenoxy)acetic Acid] |
| > 1000 nM | 100 to 1000 nM | +++ (T3-SI > 30X) | O=C(O)COc1cc(Cl)c(Cc2ccc(O)c(-c3cccc(CC(F)(F)F)c3)c2)c(Cl)c1 [Compound 26, 2-(3,5-dichloro-4-((6-hydroxy-3′-(2,2,2-trifluoroethyl)-[1,1′-biphenyl]-3-yl)methyl)phenoxy)acetic Acid] |
| 100 to 1000 nM | 10 to 100 nM | ++ (3X < T3-SI ≤ 30X) | O=C(O)COc1cc(Cl)c(Cc2ccc(O)c(-c3cccc(Cl)c3)c2)c(Cl)c1 [Compound 29, 2-(3,5-dichloro-4-((3′-chloro-6-hydroxy-[1,1′-biphenyl]-3-yl)methyl)phenoxy)acetic Acid] |
| > 1000 nM | 100 to 1000 nM | ++ (3X < T3-SI ≤ 30X) | O=C(O)COc1cc(Cl)c(Cc2ccc(O)c(-c3cccs3)c2)c(Cl)c1 [Compound 34, 2-(3,5-dichloro-4-(4-hydroxy-3-(thiophen-2-yl)benzyl)phenoxy)acetic acid] |
| > 1000 nM | > 1000 nM | ++ (3X < T3-SI ≤ 30X) | O=C(O)COc1cc(Cl)c(Cc2ccc(O)c(-c3cc(Cl)cs3)c2)c(Cl)c1 [Compound 36, 2-(3,5-dichloro-4-(3-(4-chlorothiophen-2-yl)-4-hydroxybenzyl)phenoxy) acetic Acid] |
| > 1000 nM | > 1000 nM | ++ (3X < T3-SI ≤ 30X) | O=C(O)COc1cc(Cl)c(Cc2ccc(O)c(-c3ccco3)c2)c(Cl)c1 [Compound 38, 2-(3,5-dichloro-4-(3-(furan-2-yl)-4-hydroxybenzyl)phenoxy)acetic acid] |
| 100 to 1000 nM | 10 to 100 nM | ++ (3X < T3-SI ≤ 30X) | O=C(O)COc1cc(Cl)c(Cc2ccc(O)c(-c3cc(C(F)(F)F)ccc3F)c2)c(Cl)c1 [Compound 45, 2-(3,5-dichloro-4-((2′-fluoro-6-hydroxy-5′-(trifluoromethyl)-[1,1′-biphenyl]-3-yl)methyl)phenoxy)acetic Acid] |
| 100 to 1000 nM | 10 to 100 nM | ++ (3X < T3-SI ≤ 30X) | O=C(O)COc1cc(Cl)c(Cc2ccc(O)c(-c3cc(OC(F)F)ccc3F)c2)c(Cl)c1 [Compound 52, 2-(3,5-dichloro-4-((5′-(difluoromethoxy)-2′-fluoro-6-hydroxy-[1,1′-biphenyl]-3-yl)methyl)phenoxy)acetic Acid] |
| 100 to 1000 nM | 100 to 1000 nM | ++ (3X < T3-SI ≤ 30X) | Cc1cc(OCC(=O)O)cc(Cl)c1Cc1ccc(O)c(-c2cccc(C(F)(F)F)c2)c1 [Compound 64, 2-(3-chloro-4-((6-hydroxy-3′-(trifluoromethyl)-[1,1′-biphenyl]-3-yl)methyl)-5-methylphenoxy)acetic Acid] |
| 100 to 1000 nM | 10 to 100 nM | ++ (3X < T3-SI ≤ 30X) | Cc1cc(OCC(=O)O)cc(Br)c1Cc1ccc(O)c(-c2cccc(OC(F)F)c2)c1 [Compound 66, 2-(3-bromo-4-((3′-(difluoromethoxy)-6-hydroxy-[1,1′-biphenyl]-3-yl)methyl)-5-methylphenoxy)acetic Acid] |
| 10 to 100 nM | 10 to 100 nM | ++ (3X < T3-SI ≤ 30X) | CC(c1ccc(F)cc1)c1cc(Cc2c(Cl)cc(OCC(=O)O)cc2Cl)ccc1O (centres unmarked) [Compound 73, 2-(3,5-dichloro-4-(3-(1-(4-fluorophenyl)ethyl)-4-hydroxybenzyl)phenoxy) acetic Acid] |
